Source: US8507683B2, “Compounds for the treatment of hepatitis C” (Bristol-Myers Squibb Company, priority 2010, dated 2013)

What was measured:
[1] = tested on: genotype 1b HCV replicon in Huh-7 cells; experiment: HCV replicon luciferase assay, genotype 1b; type: cell-based; conditions: Hepatitis C virus, 1b genotype replicon
Protocol: (§1) Cell Lines. The cell lines used to evaluate compounds consist of a human hepatocyte derived cell line (Huh-7) that constitutively expresses a genotype 1a or 1b HCV replicon containing a Renilla luciferase reporter gene. These cells were maintained in Dulbecco's modified Eagle medium (DMEM) containing 10% FBS, 100 U/mL penicillin/streptomycin and 1.0 mg/mL G418.
(§2) HCV Replicon Luciferase Assay. To evaluate compound efficacy, HCV replicon cells were seeded in 96-well plates in DMEM containing 10% FBS at a cell density of 10^4/well. Following incubation at 37° C. overnight, compounds serially diluted in DMSO were added to the cell plates. Alternatively, titrated compounds were transferred to sterile 384-well tissue-culture treated plates and the plates seeded with 50 μL of cells at a density of 2.4×10^3 cells/well in DMEM containing 4% FCS (final DMSO concentration at 0.5%). After 3 days incubation at 37° C., cells were analyzed for Renilla Luciferase activity using the EnduRen substrate (Promega cat #E6485) according to the manufacturer's directions. Briefly, the EnduRen substrate was diluted in DMEM and then added to the plates to a final concentration of 7.5 μM. The plates were incubated for at least 1 h at 37° C. then read on a TopCount NXT Microplate Scintillation and Luminescence Counter (Packard) or Viewlux Imager (PerkinElmer) using a luminescence program. The 50% effective concentration (EC50) was calculated using the exponential form of the median effect equation where EC50=100−[(δFinh/δFcon)×100].

[2] = target: HCV NS5B RdRp genotype 1b (Hepatitis C virus genotype 1b (isolate Con1) (HCV), UniProt Q9WMX2); experiment: HCV NS5B RdRp enzyme assay; type: biochemical
Protocol: HCV NS5B RdRp Cloning, Expression, and Purification. The cDNA encoding the NS5B protein of HCV, genotype 1b, was cloned into the pET21a expression vector. The protein was expressed with an 18 amino acid C-terminal truncation to enhance the solubility. The E. coli competent cell line BL21(DE3) was used for expression of the protein. Cultures were grown at 37° C. for ˜4 hours until the cultures reached an optical density of 2.0 at 600 nm. The cultures were cooled to 20° C. and induced with 1 mM IPTG. Fresh ampicillin was added to a final concentration of 50 μg/mL and the cells were grown overnight at 20° C.
Cell pellets (3 L) were lysed for purification to yield 15-24 mgs of purified NS5B. The lysis buffer consisted of 20 mM Tris-HCl, pH 7.4, 500 mM NaCl, 0.5% triton X-100, 1 mM DTT, 1 mM EDTA, 20% glycerol, 0.5 mg/ml lysozyme, 10 mM MgCl2, 15 ug/ml deoxyribonuclease I, and Complete TM protease inhibitor tablets (Roche). After addition of the lysis buffer, frozen cell pellets were resuspended using a tissue homogenizer. To reduce the viscosity of the sample, aliquots of the lysate were sonicated on ice using a microtip attached to a Branson sonicator. The sonicated lysate was centrifuged at 100,000×g for 30 minutes at 4° C. and filtered through a 0.2 μm filter unit (Corning).
The protein was purified using two sequential chromatography steps: Heparin sepharose CL-6B and polyU sepharose 4B. The chromatography buffers were identical to the lysis buffer but contained no lysozyme, deoxyribonuclease I, MgCl2 or protease inhibitor and the NaCl concentration of the buffer was adjusted according to the requirements for charging the protein onto the column. Each column was eluted with a NaCl gradient which varied in length from 5-50 column volumes depending on the column type. After the final chromatography step, the resulting purity of the enzyme is >90% based on SDS-PAGE analysis. The enzyme was aliquoted and stored at −80° C.
Standard HCV NS5B RdRp Enzyme Assay. HCV RdRp genotype 1b assays were run in a final volume of 60 μl in 96 well plates (Costar 3912) . The assay buffer is composed of 20 mM Hepes, pH 7.5, 2.5 mM KCl, 2.5 mM MgCl2, 1 mM DTT, 1.6 U RNAse inhibitor (Promega N2515), 0.1 mg/ml BSA (Promega R3961), and 2% glycerol. All compounds were serially diluted (3-fold) in DMSO and diluted further in water such that the final concentration of DMSO in the assay was 2%. HCV RdRp genotype 1b enzyme was used at a final concentration of 28 nM. A polyA template was used at 6 nM, and a biotinylated oligo-dT12 primer was used at 180 nM final concentration. Template was obtained commercially (Amersham 27-4110). Biotinylated primer was prepared by Sigma Genosys. ^3H-UTP was used at 0.6 μCi (0.29 μM total UTP). Reactions were initiated by the addition of enzyme, incubated at 30° C. for 60 min, and stopped by adding 25 μL of 50 mM EDTA containing SPA beads (4 μg/μL, Amersham RPNQ 0007). Plates were read on a Packard Top Count NXT after >1 hr incubation at room temperature.
Modified HCV NS5B RdRp Enzyme Assay. An on-bead solid phase homogeneous assay was also used to assess NS5B inhibitors (WangY-K, Rigat K, Roberts S, and Gao M (2006) Anal Biochem, 359: 106-111). The assay is a modification of the standard assay described above and was used in a 96-well or a 384-well format. […]

HCV = conditions: cited from earlier work
[3] = tested on: genotype 1a HCV replicon in Huh-7 cells; experiment: HCV replicon luciferase assay, genotype 1a; type: cell-based; conditions: Hepatitis C virus, 1a genotype used for replicon data
Protocol: as §1
as §2, with “The 50% effective concentration (EC50) was calculated using the exponential form of the median effect equation where EC50=100−[(δFinh/δFcon)×100].” left out

Chain of HCV NS5B RdRp genotype 1b (Q9WMX2 2420-2992): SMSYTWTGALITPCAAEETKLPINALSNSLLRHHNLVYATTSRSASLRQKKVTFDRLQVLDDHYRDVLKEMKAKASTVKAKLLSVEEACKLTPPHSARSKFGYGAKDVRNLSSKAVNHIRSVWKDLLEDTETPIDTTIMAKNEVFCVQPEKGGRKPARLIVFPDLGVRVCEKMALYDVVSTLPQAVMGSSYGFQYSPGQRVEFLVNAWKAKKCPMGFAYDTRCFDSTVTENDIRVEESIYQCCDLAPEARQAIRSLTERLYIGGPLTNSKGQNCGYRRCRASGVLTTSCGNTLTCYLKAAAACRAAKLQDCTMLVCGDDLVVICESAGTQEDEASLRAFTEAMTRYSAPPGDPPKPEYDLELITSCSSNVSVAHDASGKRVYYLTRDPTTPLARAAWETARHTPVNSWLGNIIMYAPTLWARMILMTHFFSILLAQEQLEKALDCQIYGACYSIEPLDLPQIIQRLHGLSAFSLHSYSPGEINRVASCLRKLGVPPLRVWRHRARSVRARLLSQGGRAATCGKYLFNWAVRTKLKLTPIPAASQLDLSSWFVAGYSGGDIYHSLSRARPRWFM

**Q.** With CNC(=O)c1c(-c2ccc(F)cc2)oc2ccc(-c3cc(C(=O)NC4(c5ncccn5)COC4)ccc3C)c(F)c12 [4-fluoro-2-(4-fluorophenyl)-N-methyl-5-(2-methyl-5-(3-(pyrimidin-2-yl)oxetan-3-ylcarbamoyl)phenyl)benzofuran-3-carboxamide] as the compound, how does the EC50 [1] read?
**A.** 15 nM

**Q.** And the IC50 [2]?
**A.** 10 nM

**Q.** Which EC50 [1] does the source give for CNC(=O)c1c(-c2ccc(F)cc2)oc2ccc(-c3cc(C(=O)NC4(c5ncccn5)COC4)cc(F)c3C)c(F)c12 [4-fluoro-5-(3-fluoro-2-methyl-5-(3-(pyrimidin-2-yl)oxetan-3-ylcarbamoyl)phenyl)-2-(4-fluorophenyl)-N-methylbenzofuran-3-carboxamide] here?
**A.** 12 nM

**Q.** And the IC50 [2]?
**A.** 6 nM

**Q.** Which EC50 [1] does the source give for CNC(=O)c1c(-c2ccc(F)cc2)oc2ccc(-c3cc(C(=O)NC4(c5ccccc5)COC4)ccc3C)c(F)c12 here?
**A.** 4 nM

**Q.** And the IC50 [2]?
**A.** 57 nM

**Q.** What does the source list for CNC(=O)c1c(-c2ccc(F)cc2)oc2ccc(-c3cc(C(=O)NC4(c5ncccn5)COC4)c(OC)cc3C)c(F)c12 [4-fluoro-2-(4-fluorophenyl)-5-(4-methoxy-2-methyl-5-(3-(pyrimidin-2-yl)oxetan-3-ylcarbamoyl)phenyl)-N-methylbenzofuran-3-carboxamide]?
**A.** EC50 [1]: 12 nM; IC50 [2]: 22 nM

**Q.** With CNC(=O)c1c(-c2ccc(F)cc2)oc2ccc(-c3cc(C(=O)NC4(c5ccccn5)COC4)cc(F)c3C)c(F)c12 [4-fluoro-5-(3-fluoro-2-methyl-5-(3-(pyridin-2-yl)oxetan-3-ylcarbamoyl)phenyl)-2-(4-fluorophenyl)-N-methylbenzofuran-3-carboxamide] as the compound, how does the EC50 [1] read?
**A.** 6 nM

**Q.** What about the IC50 [2] of the same compound?
**A.** 16 nM

**Q.** With CNC(=O)c1c(-c2ccc(F)cc2)oc2cc(N(CCO)S(C)(=O)=O)c(C3CC3)cc12 [HCV-796] as the compound, how does the hepatic toxicity (HCV; extended dosing of the combination regimens with interferon and ribavirin) read?
**A.** hepatic toxicity observed

**Q.** And the “HCV RNA levels in patients” value (HCV; patients, single agent)?
**A.** showed an ability to reduce HCV RNA levels in patients

**Q.** For CNC(=O)c1c(-c2ccc(F)cc2)oc2ccc(-c3cc(C(=O)NC4(c5ccccn5)COC4)ccc3C)c(F)c12 [4-fluoro-2-(4-fluorophenyl)-N-methyl-5-(2-methyl-5-(3-(pyridin-2-yl)oxetan-3-ylcarbamoyl)phenyl)benzofuran-3-carboxamide], which EC50 [3] is on record?
**A.** 24 nM

**Q.** And the IC50 [2]?
**A.** 24 nM

**Q.** Which EC50 [1] does the source give for CNC(=O)c1c(-c2ccc(F)cc2)oc2ccc(-c3cc(C(=O)NC4(c5ccccn5)COC4)c(OC)cc3C)c(F)c12 here?
**A.** 8 nM

**Q.** And the IC50 [2]?
**A.** 17 nM
